Counter-ions that a name gives are not always drawn. Like-named read-outs stand apart in the source and are kept apart here.
What was measured:
H3R in brain [1] = molecular target: H3R in brain (Mus musculus, UniProt P58406); conditions: mice, oral, immethridine base and salts at 0.3 mg/kg, imetit: maximal reduction
human HMT = human HMT (Homo sapiens, UniProt P50135); experiment: tele-methylation by HMT, cytosol of fresh human hepatocytes, Lineweaver-Burk analysis; conditions: pH 7.4, 20 μM (S)-adenosyl methionine
Sequence of human HMT (P50135 whole entry): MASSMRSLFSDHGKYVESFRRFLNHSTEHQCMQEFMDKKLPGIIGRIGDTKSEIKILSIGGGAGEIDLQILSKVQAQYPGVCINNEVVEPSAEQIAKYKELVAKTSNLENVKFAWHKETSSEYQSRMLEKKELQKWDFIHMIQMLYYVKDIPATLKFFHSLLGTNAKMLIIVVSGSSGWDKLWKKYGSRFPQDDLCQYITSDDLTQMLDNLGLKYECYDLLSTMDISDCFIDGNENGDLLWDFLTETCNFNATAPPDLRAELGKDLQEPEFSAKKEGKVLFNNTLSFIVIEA

[2] = hygroscopy: water uptake in a water-saturated atmosphere at room temperature; format: physicochemical; conditions: a few days in water-saturated atmosphere at room temperature, listed as immethridine dioxalate
[3] = stability on heating at 80° C. during one week, HPLC analysis
recombinant hH3R = molecular target: T1, recombinant hH3R (Homo sapiens, UniProt Q9Y5N1); experiment: [35S]GTPγS binding activation on recombinant hH3R expressed in HEK 293 cells; format: biochemical
T1 construct: expressed in transfected cells; host or cells: HEK 293 cells
T1 sequence (Q9Y5N1 whole entry): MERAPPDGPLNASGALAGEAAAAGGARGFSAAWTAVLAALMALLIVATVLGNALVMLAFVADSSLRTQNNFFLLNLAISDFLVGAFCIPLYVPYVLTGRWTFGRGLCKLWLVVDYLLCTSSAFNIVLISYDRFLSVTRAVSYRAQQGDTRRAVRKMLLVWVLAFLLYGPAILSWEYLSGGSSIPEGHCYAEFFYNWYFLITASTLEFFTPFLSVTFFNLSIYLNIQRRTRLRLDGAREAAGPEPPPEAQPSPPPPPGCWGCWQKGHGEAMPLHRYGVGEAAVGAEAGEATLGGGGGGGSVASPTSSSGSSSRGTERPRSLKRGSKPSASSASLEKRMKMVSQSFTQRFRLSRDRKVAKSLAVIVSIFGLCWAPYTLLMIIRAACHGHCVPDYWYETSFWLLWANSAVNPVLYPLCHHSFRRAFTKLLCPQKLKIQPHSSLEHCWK

human H3R = human H3R (Homo sapiens, UniProt Q9Y5N1); experiment: β arrestin translocation; format: cell-based
Sequence of human H3R (Q9Y5N1 whole entry): as above

[4] = sleep EEG recording in rats (24-hr recordings); format: in vivo; conditions: for tolerance to sleep-promoting / hypnotic effect: repeated o.d. administration over several days
Source text: While the sleep-promoting activity of several other H3R agonists has been previously described (Lin et al., Brain Res., 1990, 523, 325-330; Monti et al., Neuropsychopharmacology, 1996, 15, 31-35), much higher dosages—by two to three orders of magnitude—were required to obtain this effect.
This is in contrast with the long-lasting disorders of circadian rhythms, namely the relative insomnia, which occur at the interruption of a repeated treatment with benzodiazepines or imidazopyridines such as Zolpidem.

[5] = AUCs of unchanged drug and metabolite in rat brain and blood; conditions: Sprague-Dawley, po, 1 mg/kg
[6] = molecular target: recombinant human cytochrome P450 2C9 (Homo sapiens, UniProt P11712); experiment: inhibition of recombinant human cytochrome P450 2C9; format: in vitro ADME; conditions: read-out: IC50 at 2C9 isoform
Sequence of recombinant human cytochrome P450 2C9 (P11712 whole entry, canonical isoform): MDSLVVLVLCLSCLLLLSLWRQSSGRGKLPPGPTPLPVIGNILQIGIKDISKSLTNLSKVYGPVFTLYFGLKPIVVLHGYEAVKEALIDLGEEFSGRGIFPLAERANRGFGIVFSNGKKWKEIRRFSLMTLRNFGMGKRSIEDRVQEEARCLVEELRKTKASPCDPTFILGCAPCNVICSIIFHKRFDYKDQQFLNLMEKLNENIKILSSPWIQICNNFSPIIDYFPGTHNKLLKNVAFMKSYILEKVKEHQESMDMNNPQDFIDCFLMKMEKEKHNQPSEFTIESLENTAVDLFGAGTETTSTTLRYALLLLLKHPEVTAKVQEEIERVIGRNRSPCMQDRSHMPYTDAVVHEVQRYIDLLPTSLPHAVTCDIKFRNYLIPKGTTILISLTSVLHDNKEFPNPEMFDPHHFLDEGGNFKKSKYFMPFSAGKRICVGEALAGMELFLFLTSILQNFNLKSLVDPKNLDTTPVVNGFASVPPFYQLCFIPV
Source text: (§1) These values are over 3 orders of magnitude higher than the expected plasma or tissue concentrations at therapeutic dosage.

H3R in brain [7] = experiment: reduction of brain tele methylhistamine levels after oral dosing (ED50)
[8] = withdrawal symptoms after interruption of repeated Zolpidem treatment in rats; format: in vivo; conditions: 18 days 20 mg/kg o.d. oral Zolpidem followed by 0.3 mg/kg, p.o.
Method: (§2) Accordingly, rats treated orally for 18 days by 20 mg/kg o.d.

hERG potassium channel [9] = molecular target: T2, hERG potassium channel (Homo sapiens, UniProt Q12809); experiment: potassium hERG current, functional patch clamp assay in HEK-293 cells; conditions: concentrations up to 10 μM
T2 sequence (Q12809 whole entry, canonical isoform): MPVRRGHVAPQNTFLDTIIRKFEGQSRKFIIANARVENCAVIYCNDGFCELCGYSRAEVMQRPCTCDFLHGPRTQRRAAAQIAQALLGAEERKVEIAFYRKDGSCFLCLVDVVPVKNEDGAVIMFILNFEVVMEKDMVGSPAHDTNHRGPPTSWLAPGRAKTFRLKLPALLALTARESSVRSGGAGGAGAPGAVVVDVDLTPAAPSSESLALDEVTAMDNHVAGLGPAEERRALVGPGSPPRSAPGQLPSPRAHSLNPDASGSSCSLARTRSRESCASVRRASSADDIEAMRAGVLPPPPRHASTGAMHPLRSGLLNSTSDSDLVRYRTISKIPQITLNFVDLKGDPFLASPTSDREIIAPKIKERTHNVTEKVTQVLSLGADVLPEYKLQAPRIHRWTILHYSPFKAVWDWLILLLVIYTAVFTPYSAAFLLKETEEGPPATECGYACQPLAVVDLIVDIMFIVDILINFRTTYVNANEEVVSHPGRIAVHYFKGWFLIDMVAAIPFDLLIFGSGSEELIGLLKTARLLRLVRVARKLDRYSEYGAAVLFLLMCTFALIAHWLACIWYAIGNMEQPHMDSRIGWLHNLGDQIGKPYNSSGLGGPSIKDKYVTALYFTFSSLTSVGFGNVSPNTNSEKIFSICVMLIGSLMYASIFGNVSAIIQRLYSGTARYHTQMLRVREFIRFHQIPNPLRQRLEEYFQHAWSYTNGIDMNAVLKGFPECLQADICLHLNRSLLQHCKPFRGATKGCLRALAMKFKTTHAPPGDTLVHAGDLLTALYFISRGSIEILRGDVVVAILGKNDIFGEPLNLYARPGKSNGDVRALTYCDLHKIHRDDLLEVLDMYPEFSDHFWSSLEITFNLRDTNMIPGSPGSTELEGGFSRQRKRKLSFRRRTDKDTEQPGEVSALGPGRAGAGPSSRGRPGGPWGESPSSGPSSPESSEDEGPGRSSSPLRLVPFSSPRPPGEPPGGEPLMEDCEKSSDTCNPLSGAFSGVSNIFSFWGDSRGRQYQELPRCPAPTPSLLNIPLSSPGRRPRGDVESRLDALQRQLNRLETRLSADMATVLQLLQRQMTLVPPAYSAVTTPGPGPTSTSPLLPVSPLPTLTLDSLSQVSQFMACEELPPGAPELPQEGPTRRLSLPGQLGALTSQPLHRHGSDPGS

[10] = test system: human CYP 450 isoforms (3A4, 2C9, 2E1, 2B6) and UGTs; experiment: induction of CYP 450 isoforms and UGTs in human hepatocytes; format: in vitro ADME; conditions: concentrations over 3 orders of magnitude higher than expected therapeutic concentrations
[11] = AUCs of unchanged drug and tele methylated derivative in mouse brain and blood; format: in vivo; conditions: 1 mg/kg, p.o.
[12] = molecular target: recombinant human cytochrome P450 3A4 (Homo sapiens, UniProt P08684); experiment: inhibition of recombinant human cytochrome P450 3A4; format: in vitro ADME; conditions: read-out: IC50 at 3A4 isoform
Sequence of recombinant human cytochrome P450 3A4 (P08684 whole entry, canonical isoform): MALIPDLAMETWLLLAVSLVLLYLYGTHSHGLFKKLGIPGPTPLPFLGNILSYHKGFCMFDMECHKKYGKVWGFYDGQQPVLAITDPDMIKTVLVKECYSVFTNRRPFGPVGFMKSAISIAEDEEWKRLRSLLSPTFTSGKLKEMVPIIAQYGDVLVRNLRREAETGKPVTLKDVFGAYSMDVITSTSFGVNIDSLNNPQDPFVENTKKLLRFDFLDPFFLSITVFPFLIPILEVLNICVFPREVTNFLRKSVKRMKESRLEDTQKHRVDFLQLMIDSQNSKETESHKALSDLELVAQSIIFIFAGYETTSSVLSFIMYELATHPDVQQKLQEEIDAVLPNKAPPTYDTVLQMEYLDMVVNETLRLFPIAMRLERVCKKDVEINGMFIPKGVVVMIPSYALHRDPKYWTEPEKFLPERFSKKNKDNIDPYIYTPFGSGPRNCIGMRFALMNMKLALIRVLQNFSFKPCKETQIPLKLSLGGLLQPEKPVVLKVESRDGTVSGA
Source text: as §1

hERG potassium channel [13] = molecular target: T2, hERG potassium channel; experiment: [3H]dofetidide binding assay, HEK-293 cells stably expressing hERG; conditions: concentrations up to 10 μM
H3R = molecular target: T3, H3R (Rattus norvegicus, UniProt Q9QYN8); conditions: rats, intraperitoneal, doses as high as 10 mg/kg necessary (Celanire et al.); cited from earlier work
T3 construct: host or cells: living rats (brain)
T3 sequence (Q9QYN8 whole entry): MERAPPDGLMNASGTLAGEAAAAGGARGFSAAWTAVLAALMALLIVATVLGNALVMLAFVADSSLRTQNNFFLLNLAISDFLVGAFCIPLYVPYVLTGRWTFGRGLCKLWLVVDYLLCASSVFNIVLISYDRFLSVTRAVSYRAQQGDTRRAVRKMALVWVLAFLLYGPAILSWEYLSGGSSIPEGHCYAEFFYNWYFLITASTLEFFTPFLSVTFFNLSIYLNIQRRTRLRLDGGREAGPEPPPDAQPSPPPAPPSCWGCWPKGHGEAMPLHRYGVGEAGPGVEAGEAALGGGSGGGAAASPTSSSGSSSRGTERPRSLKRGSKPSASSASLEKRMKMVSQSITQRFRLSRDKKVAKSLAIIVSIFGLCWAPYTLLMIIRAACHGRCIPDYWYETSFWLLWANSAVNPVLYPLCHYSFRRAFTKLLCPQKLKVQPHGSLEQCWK

[14] = molecular target: recombinant human cytochrome P450 2D6 (Homo sapiens, UniProt P10635); experiment: inhibition of recombinant human cytochrome P450 2D6; format: in vitro ADME; conditions: read-out: IC50 at 2D6 isoform
Sequence of recombinant human cytochrome P450 2D6 (P10635 whole entry, canonical isoform): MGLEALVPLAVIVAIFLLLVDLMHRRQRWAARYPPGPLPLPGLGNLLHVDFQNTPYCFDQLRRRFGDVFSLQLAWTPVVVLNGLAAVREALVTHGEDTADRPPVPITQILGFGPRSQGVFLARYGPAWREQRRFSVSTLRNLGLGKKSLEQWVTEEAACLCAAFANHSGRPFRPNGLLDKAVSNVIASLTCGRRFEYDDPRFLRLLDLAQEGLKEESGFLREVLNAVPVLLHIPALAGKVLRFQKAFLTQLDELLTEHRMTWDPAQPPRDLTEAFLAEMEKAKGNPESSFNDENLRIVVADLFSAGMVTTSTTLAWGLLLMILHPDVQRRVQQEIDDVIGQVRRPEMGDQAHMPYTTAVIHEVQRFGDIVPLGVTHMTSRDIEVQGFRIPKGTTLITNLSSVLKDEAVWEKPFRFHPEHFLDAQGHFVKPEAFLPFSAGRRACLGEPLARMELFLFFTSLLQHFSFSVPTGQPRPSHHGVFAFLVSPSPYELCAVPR
Source text: as §1

[15] = general tolerance in rodents; format: in vivo; conditions: doses as high as 100 mg/kg
Method: as §2

Sequence of H3R in brain (Mus musculus, UniProt P58406) (P58406 whole entry): as the sequence (Q9QYN8 whole entry) above, with T15A, A286T, A290G, R387H, I389V counted along it

c1cc(Cc2c[nH]cn2)ccn1 [BP1.5375 (alpha keto-glutarate salt)]
t-methylhistamine brain level variation vs. control, mean (%) (H3R in brain [1]; listed as Immethridine alpha-ketoglutarate, 0.3 mg/kg): −46.1%

c1cc(Cc2c[nH]cn2)ccn1 [BP1.5375 (dibromhydrate salt)]
Vm (human HMT): 0.004 µM/min

c1cc(Cc2cnc[nH]2)ccn1 [BP1.5375 (dioxalate salt), 4-(1H-imidazol-4-ylmethyl)-pyridine dioxalate]
water uptake, % of weight [2]: 13-15% | stability when heated ([3]; listed as immethridine dioxalate, dioxalate): no apparent degradation

c1cc(Cc2c[nH]cn2)ccn1 [BP1.5375 (ditoluenesulfonate salt)]
Vm (human HMT): 0.004 µM/min | t-methylhistamine brain level variation vs. control, mean (%) (H3R in brain [1]; listed as Immethridine di p-toluene sulfonate, 0.3 mg/kg): −41.6%

c1cc(Cc2cnc[nH]2)ccn1 [BP1.5375, 4-(1H-imidazol-4-yl-methyl)-pyridine]
EC50 (recombinant hH3R): ~0.001 µM | intrinsic activity compared with histamine (recombinant hH3R; [35S]GTPγS binding, hH3R): 0.75 | EC50 (human H3R): ~0.017 µM | intrinsic activity compared to histamine (human H3R; β arrestin translocation): 0.5 | rebound / sleep pattern upon interruption of repeated treatment ([4]; after interruption of 6-day treatment with 0.3 mg/kg, p.o.): does not give rise to a rebound phenomenon | tolerance to sleep-promoting / hypnotic effect [4]: does not diminish | duration of deep SWS (slow wave sleep) period ([4]; same very low dosages, administered 30 min before start of light-on period): enhanced significantly | Kp [5]: 2.6 | IC50 [6]: 3.1 µM | ED50, reduction of levels of tele methylhistamine in brain (H3R in brain [7]; given orally to rats or mice): ~30 micrograms/kg | tele methylhistamine response upon repeated administration (H3R in brain [7]; repeated administration over 7 days): maintained | occurrence of withdrawal symptoms after Zolpidem interruption [8]: prevents the occurrence of withdrawal symptoms | t-methylhistamine brain level variation vs. control, mean (%) (H3R in brain [1]; 0.3 mg/kg): −42.1% | inhibition of potassium hERG current (hERG potassium channel [9]): not to inhibit | induction of CYP 450 isoforms (3A4, 2C9, 2E1, 2B6) and UGTs [10]: not induced | ratio of brain/blood AUCs [11]: close to unit | IC50 [12]: 29.3 µM | inhibition of [3H]dofetidide binding (hERG potassium channel [13]): not to inhibit | decrease of histamine in brain (H3R): modestly decrease histamine in brain | IC50 [14]: ≥ 100 µM | apparent toxicity sign [15]: does not induce any apparent toxicity sign | stability when heated ([3]; listed as immethridine): darkens

c1cc(Cc2cnc[nH]2)ccn1 [Immethridine dihydrochloride]
t-methylhistamine brain level variation vs. control, mean (%) (H3R in brain [1]): −37.0%

CS(=O)(=O)O.CS(=O)(=O)O.c1cc(Cc2c[nH]cn2)ccn1 [Immethridine methane sulfonate]
t-methylhistamine brain level variation vs. control, mean (%) (H3R in brain [1]): −40.0%

Cc1ccc(-c2nc3ccc(C)cn3c2CC(=O)N(C)C)cc1 [Zolpidem, reference compound]
withdrawal symptoms upon interruption of repeated treatment ([4]; after interruption of 15-day treatment with 20 mg/kg, p.o.): increases in sleep onset latency, decrease in deep sleep | tolerance to sleep-promoting / hypnotic effect [4]: rapid development of tolerance

Reference: US20120129892A1, “NOVEL PHARMACEUTICALLY ACCEPTABLE SALTS OF 4-(1H-IMIDAZOL-4-[…])PYRIDINE AND THEIR THERAPEUTICAL USES” (BIOPROJET, priority 2009, published 2012)
